This passage reports melting point results from US20060194969A1, “4-Substituted benzimidazoles and their uses as inhibitors of gastric secretion” (priority 2002, published 2006).

For the compound `Cc1cccc(C)c1CNc1cc(S(=O)(=O)N(C)C)cc2c1nc(C)n2C` [Example 63, 7-(2,6-Dimethyl-benzylamino)-2,3-dimethyl-3H-benzimidazole-5-sulfonic acid dimethylamide], the melting point (usually the temperature of the solid-liquid transition) is 237 to 238 °C. The value for `Cc1cccc(C)c1CNc1cc(C(=O)NCCO)cc2c1nc(C)n2C` [Example 36, 4-(2,6-Dimethyl-benzylamino)-6-(2-hydroxyethyl-aminocarbonyl)-1,2-dimethyl-1H-benzimidazole] was 259 to 260 °C; that for `Cc1nc2c(OCc3ccccc3)cc(C(=O)N(C)C)cc2n1C` [Example 7, 4-Benzyloxy-6-(N,N-dimethylaminocarbonyl)-1,2-dimethyl-1H-benzimidazole] was 159 to 160 °C; that for `CCOC(=O)c1cc(NCc2c(C)cccc2CC)c2nc(COC)n(C)c2c1` [Example 29, Ethyl 4-(2-ethyl-6-methyl-benzylamino)-2-methoxymethyl-1-methyl-1H-benzimidazole-6-carboxylate] was 106 to 107 °C. `CC(=O)OCc1nc2c(NCc3c(C)cccc3C)cc(Br)cc2n1C` [Example 81, 2-Acetoxymethyl-6-bromo-4-(2,6-dimethyl-benzylamino)-1-methyl-1H-benzimidazole] returned a melting point of 188 to 190 °C. As to `Cc1cccc(C)c1CNc1cc(C(N)=O)cc2c1nc(C)n2C` [Example 39, 4-(2,6-Dimethyl-benzylamino)-1,2-dimethyl-1H-benzimidazole-6-carboxamide], the melting point came to 272 °C.

`Cc1coc(C)c1N(C)c1cc(C(=O)N(C)C)cc2c1nc(C)n2C` [Example 62, 6-(N,N-Dimethylaminocarbonyl)-4-(2,4-dimethyl-furan-3-yl-methylamino)-1,2-dimethyl-1H-benzimidazole] came in with a melting point of 163 to 164 °C.

Compound `Cc1nnc(-c2cc(NCc3c(C)cccc3C)c3nc(C)n(C)c3c2)o1` [Example 85, 4-(2,6-Dimethyl-benzylamino)-6-(5-methyl-[1,3,4]oxadiazol-2yl)-1,2-dimethyl-1H-benzimidazole] yielded a melting point of 256 to 257 °C. Compound `Cc1ccc(C)c2c1C[C@@H](O)[C@@H]2Oc1cc(C(=O)N(C)C)cc2c1nc(C)n2C` (relative stereo) [Example 22, 4-(trans-2,3-Dihydro-2-hydroxy-4,7-dimethyl-1-indenyloxy)-6-(N,N-dimethylaminocarbonyl)-1,2-dimethyl-1H-benzimidazole] had a melting point of 134 °C.

In the case of `CCN(CCOC)C(=O)c1cc(O[C@@H]2c3ccccc3C[C@H]2O)c2nc(C)n(C)c2c1.O=C(O)C(=O)O` (relative stereo) [Example 24, 4-(trans-2,3-Dihydro-2-hydroxy-1-indenyloxy)-6-[N-(2-methoxyethyl)-N-ethyl-amino-carbonyl]-1,2-dimethyl-1H-benzimidazole Oxalate], the melting point is 141 °C. In turn, `Cn1c(C2CC2)nc2c(O[C@@H]3c4ccccc4C[C@H]3O)cc(C(=O)O)cc21` (relative stereo) [Example 59, 2-Cyclopropyl-4-(trans-2,3-dihydro-2-hydroxy-1-indenyloxy)-1-methyl-1H-benzimidazole-6-carboxylic acid] displayed a melting point of 132 to 134 °C. `CO[C@@H]1Cc2ccccc2[C@H]1Oc1cc(C(=O)N(C)C)cc2c1nc(C)n2C.O=C(O)C(=O)O` (relative stereo) [Example 12, 4-(trans-2,3-Dihydro-2-methoxy-1-indenyloxy)-6-(N,N-dimethylaminocarbonyl)-1,2-dimethyl-1H-benzimidazole Oxalate] had a melting point of 126 to 127 °C. Compound `Cc1nc2c(N[C@@H]3c4ccccc4C[C@H]3O)cc(C(=O)N(C)C)cc2n1C` (relative stereo) [Example 51, 4-(trans-2,3-Dihydro-2-hydroxy-1-indenylamino)-6-(N,N-dimethylaminocarbonyl)-1,2-dimethyl-1H-benzimidazole] yielded a melting point of 219 to 221 °C. The value for `Cc1cccc(C)c1CNc1cc(Br)cc2c1nc(C)n2O` [Example 76, 6-Bromo-4-(2,6-dimethyl-benzylamino)-1-hydroxy-2-methyl-1H-benzimidazole] was 277 °C; that for `CCOC(=O)c1cc(NCc2c(C)cccc2C)c2nc(COC)n(C)c2c1` [Example 30, Ethyl 4-(2,6-dimethyl-benzylamino)-2-methoxymethyl-1-methyl-1H-benzimidazole-6-carboxylate] was 134 to 135 °C; that for `Cc1cccc(C)c1CNc1cc(C(=O)N(C)CCO)cc2c1nc(C)n2C` [Example 56, 4-(2,6-Dimethyl-benzylamino)-6-(N-2-hydroxyethyl-N-methylaminocarbonyl)-1,2-dimethyl-1H-benzimidazole] was 177 to 178 °C. In the case of `Cc1cccc(C)c1CNc1cc(C(=O)NN)cc2c1nc(C)n2C` [Example 57, 4-(2,6-Dimethyl-benzylamino)-1,2-dimethyl-1H-benzimidazole-6-carboxylic acid hydrazide], the melting point lay within 277 to 278 °C. As for `CCOC(=O)c1cc(OCc2ccccc2)c2nc(C3CC3)n(C)c2c1` [Example 86, Ethyl 4-benzyloxy-2-cyclopropyl-1-methyl-1H-benzimidazole-6-carboxylate], the figure is 120 °C.

`Cc1cccc(C)c1CNc1cc(C2=NCCN2)cc2c1nc(C)n2C` [Example 72, 6-(4,5-Dihydro-1H-imidazol-2-yl)-4-(2,6-dimethyl-benzylamino)-1,2-dimethyl-1H-benzimidazole] displayed a melting point of 273 to 274 °C.

`CCc1cccc(C)c1CNc1cc(C(=O)N(C)C)cc2c1nc(CO)n2C` [Example 83, 6-(N,N-Dimethylaminocarbonyl)-4-(2-ethyl-6-methyl-benzylamino)-2-hydroxymethyl-1-methyl-1H-benzimidazole] registered a melting point of 138 to 141 °C.

Compound `CCOC(=O)c1cc(NCc2c(C)cccc2C)c2nc(C)n(COCc3ccccc3)c2c1` [Example 64, Ethyl1-benzyloxymethyl-4-(2,6-dimethyl-benzylamino)-2-methyl-1H-benzimidazole-6-carboxylate] gave a melting point of 155 to 156 °C. As for `Cc1cccc(C)c1CNc1cc(C(=O)N(C)C)cc2c1nc(CO)n2C` [Example 82, 6-(N,N-Dimethylaminocarbonyl)-4-(2,6-dimethyl-benzylamino)-2-hydroxymethyl-1-methyl-1H-benzimidazole], the melting point was 171 to 172 °C.

The compound `CCOC(=O)c1cc(O[C@@H]2c3c(C)ccc(C)c3C[C@H]2O)c2nc(C)n(C)c2c1` (relative stereo) [Example 20, Ethyl 4-(trans-2,3-dihydro-2-hydroxy-4,7-dimethyl-1-indenyloxy)-1,2-dimethyl-1H-benzimidazole-6-carboxylate] displayed a melting point of 184 °C.

The compound `CCc1cccc(C)c1COc1cc(C(=O)OC)cc2c1nc(C)n2C` [Example 1, Methyl 4-(2-ethyl-6-methyl-benzyloxy)-1,2-dimethyl-1H-benzimidazole-6-carboxylate] gave a melting point of 157 °C. `Cc1cccc(C)c1CNc1cc(CO)cc2c1nc(C)n2C` [Example 58, 4-(2,6-Dimethyl-benzylamino)-6-hydroxymethyl-1,2-dimethyl-1H-benzimidazole] gave a melting point of 245 to 246 °C.

As for `CCc1cccc(C)c1CNc1cc(C(=O)N(C)C)cc2c1nc(C)n2COCc1ccccc1.O=C(O)C(=O)O` [Example 48, 1-Benzyloxymethyl-6-(N,N-dimethylaminocarbonyl)-4-(2-ethyl-6-methyl-benzylamino)-2-methyl-1H-benzimidazole Oxalate], the melting point was in the range of 168 to 169 °C.

For `CCOC(=O)c1cc(NCc2c(C)cccc2C)c2nc(C)n(C)c2c1` [Example 28, Ethyl 4-(2,6-dimethyl-benzylamino)-1,2-dimethyl-1H-benzimidazole-6-carboxylate], the melting point was determined as 190 °C. In turn, `COC(=O)c1cc(OCc2c(C)cccc2C)c2nc(C)n(C)c2c1` [Example 3, Methyl 4-(2,6-dimethyl-benzyloxy)-1,2-dimethyl-1H-benzimidazole-6-carboxylate] displayed a melting point of 165 to 169 °C.

Take `CCc1cccc(C)c1CNc1cc(C(=O)O)cc2c1nc(COC)n2C` [Example 33, 4-(2-Ethyl-6-methyl-benzylamino)-2-methoxymethyl-1-methyl-1H-benzimidazole-6-carboxylic Acid]: the melting point was 275 to 278 °C. `Cc1cccc(C)c1CNc1cc(C(=O)N(C)C)cc2c1nc(C)n2COCc1ccccc1` [Example 66, 1-Benzyloxymethyl-6-(N,N-dimethylaminocarbonyl)-4-(2,6-dimethyl-benzylamino)-2-methyl-1H-benzimidazole]: the melting point was 55 to 56 °C.

`Cc1nc2c(O[C@@H]3c4ccccc4C[C@H]3O)cc(C(=O)NC3CC3)cc2n1C` (relative stereo) [Example 26, 6-(Cyclopropylaminocarbonyl)-4-(trans-2,3-dihydro-2-hydroxy-1-indenyloxy)-1,2-dimethyl-1H-benzimidazole] registered a melting point of 148 to 149 °C. In turn, `CNC(=O)c1cc(NCc2c(C)cccc2C)c2nc(C)[nH]c2c1` [Example 69, 4-(2,6-Dimethyl-benzylamino)-6-(N-methylaminocarbonyl)-2-methyl-1H-benzimidazole] returned a melting point of 298 °C. `COCc1nc2c(NCc3c(C)cccc3C)cc(C(=O)O)cc2n1C` [Example 34, 4-(2,6-Dimethyl-benzylamino)-2-methoxymethyl-1-methyl-1H-benzimidazole-6-carboxylic Acid] came in with a melting point of 269 to 272 °C. The value for `Cc1nc2c(OCc3ccccc3)cc(CO)cc2n1C` [Example 5, 4-Benzyloxy-6-hydroxymethyl-1,2-dimethyl-1H-benzimidazole] was 213 to 214 °C; that for `Cc1cccc(C)c1CNc1cc(C(=O)N2CC2)cc2c1nc(C)n2C` [Example 54, 6-(1-Aziridinylcarbonyl)-4-(2,6-dimethyl-benzylamino)-1,2-dimethyl-1H-benzimidazole] was 201 to 202 °C. As for `CCOC(=O)c1cc(NCc2c(C)cccc2C)c2nc(C)n(OC)c2c1` [Example 78, Ethyl 4-(2,6-dimethyl-benzylamino)-1-methoxy-2-methyl-1H-benzimidazole-6-carboxylate], the figure is 165 to 166 °C.
